Data published in patent US5372944A, “Method for conversion of halogenated hydrocarbons to halohydrins” (The Dow Chemical Company, priority 1993, dated 1994).

What was measured:
[1] = target: partially purified TDTM-003 dehalogenase (Rhodococcus sp. TDTM0003, UniProt P59336); test: Substrate profile of partially purified TDTM-003 dehalogenase; format: biochemical, Rhodococcus species TDTM-003; settings: corrected for non-enzymatic hydrolysis
Description: (§1) Hydrolytic dehalogenase enzyme activity was evaluated by adding an appropriate amount of cell free extract or enzyme preparation to 5.0 mL of 100 mM glycine buffer, pH=9.0 in a 7 mL glass vial. The halogenated substrate (5.0 μl) and a small stir bar were added, and the vial capped. Reaction was initiated by transfer to a 30° C. water bath equipped with a magnetic stirrer. Periodically 1.0 mL samples were removed and assayed for free halide. Rates were determined after correcting for non-enzymatic hydrolysis with an appropriate blank. A standard curve was prepared using sodium chloride.
Frozen pellets from 2 liters of culture were thawed into 150 mL of 10 mM Tris sulfate buffer, pH=7.5 containing 1 mM disodium EDTA. This buffer was used throughout the entire purification. The suspension was sonicated for approximately 1 hour with ice cooling using a Microson Ultrasonic Cell Disrupter and centrifuged at 10,000 rpm for 15 minutes to remove cell debris. Supernatant was removed and the sonication/centrifugation repeated with fresh buffer to increase enzyme yield. Overall sonication efficiency was monitored by absorbence at 280 nm. Cell free extracts were combined and brought slowly to 30 percent saturation with solid ammonium sulfate. The suspension was centrifuged at 10,000 rpm for 30 minutes and the pellet discarded. The supernatant was brought to 70 percent saturation with solid ammonium sulfate and centrifugation repeated. Supernatant was discarded and the pellet taken up in a small volume of buffer and dialyzed overnight against 1 liter of the same. The preparation was applied to a 1.5×15cm column of DEAE-Sephadex equilibrated with the same buffer elution carried out with a 1 liter gradient from 0 to 400 mM ammonium sulfate. Fractions of about 7-8 mLs were collected. The active fractions were pooled and brought to 90 percent saturation with ammonium sulfate. The pellet was taken up in a minimal amount of buffer, ultrafiltered to 2.5 mL using 10,000 MWCO Novacell Ultrafiltration cell, and applied to a 1.5×90 cm Sephadex G-100 column. Elution was by gravity at 90 cm and fractions of 7-8 mLs were collected. Active fractions were poled, brought to 30 percent saturation with ammonium sulfate, and applied to a 10 ml column of Butyl-agarose equilibrated in the same. Elution was performed with a 500 mL gradient from 30 percent-0 percent ammonium sulfate. Active fractions were pooled, dialyzed and used for substrate selectivity studies.
To evaluate the substrate selectivity of haloalkane dehalogenase from isolated Rhodococcus species, an enzyme preparation from the strain designated TDTM-003 was purified by the procedure described under General Experimental. This preparation provided a dehalogenase which was approximately 50 percent pure as estimated by SDS-PAGE and was free of interfering halohydrin dehalogenase activity.
The activity of this partially purified TDTM-003 dehalogenase preparation was evaluated against various chlorinated and brominated substrates. Each enzymatic rate was corrected for non-enzymatic hydroloysis.

[2] = system: dehalogenase in cell free extracts of Rhodococcus Rhodochrous, TDTM-003; test: Primary screen of dehalogenase activity in cell free extracts of TDTM-003; format: biochemical
Description: Following overnight growth, 50 μl of 1-chlorobutane was added to induce the dehalogenase. After 24 hours induction, cells were harvested by centrifugation, resuspended in cold 10mM Tris sulfate/1 mM disodium EDTA, pH=7.5, and disrupted by sonication. Cell debris was removed by centrifugation at 10,000 rpm for 30 minutes, cell free extracts dialyzed overnight against the same buffer, and assayed without dilution for dehalogenase activity.
Free chloride or bromide was assayed qualitatively using a chloride electrode (Orion), or quantitatively using the colorimetric method (430 nm) described by J. G. Bergmann, et al., Anal. Chem., 29:241-243 (1957).
as §1
Preliminary studies were performed on cell free extracts of TDTM-003 to evaluate the enzyme substrate selectivity, and the results of this study are shown in Table 2.

TDTM-003-60-2-11 [3] = test: Utilization of carbon containing compounds for growth in liquid culture, TDTM-003-60-2-11; format: cell-based, Rhodococcus species ATCC 55388;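 note: minus means no visible growth and plus means good growth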
Source text: A representative double mutant designated TDTM-003-60-2-11, made by the above example was deposited at the American Type Culture Collection on Jan. 28, 1993 and given the ATCC designation 55388.

TDTM-003 = test: Utilization of carbon containing compounds for growth in liquid culture, TDTM-003; format: cell-based, Rhodococcus species; settings: liquid culture
TDTM-003-60-2-11 [4] = test: Dehalogenation by double mutant strain TDTM-003-60-2-11 in shake flask with bulb feeder; format: cell-based, Rhodococcus sp.; settings: after 120 hours
Source text: For gas chromatography (GC) analysis of halogenated metabolites, cultures were centrifuged briefly to remove cells, saturated with sodium sulfate, and an equivalent volume of methylene chloride added. The suspension was vortexed vigorously, centrifuged to break the emulsion and the methylene chloride phase removed.
Analysis of all halocarbon substrates and products from culture broths was done by GC using a Hewlett Packard 5710 equipped with a 7671A Autoinjector with the following protocol:
Dehalogenation of 1,2-dichloropropane by the double mutant strain of Rhodococcus sp., designated TDTM-003-60-2-11 was assayed in the following manner: 5 mL of an overnight culture (16 hours) were used as inoculum for 50 mL MM1X4P containing 5 g/L disodium succinate in a 250 mL flask. At 4 and 8 hours growth, 10 μL of 1-chlorobutane was added to induce the dehalogenase enzyme. Following 24 hours of growth, cells were harvested by centrifugation, resuspended into 50 mL of fresh MM1X4P, and transferred to a sterile 250 mL shake flask equipped with a bulb feeder. To the bulb feeder was added 1,2-dichloropropane and incubation continued at 28° C. and 150 rpm. […] The production of halohydrin products was monitored by gas chromatography. 1 -Chloro-2-propanol and 2-chloro-1-propanol accumulate linearly in the culture broth to 74 parts-per-million (ppm) (w/v) and 20 ppm (w/v) respectively after 120 hours. The overall rate of halohydrin production is 0.60 mg/g dry cells/hr.
The procedure described in Example 6 was followed except 1,2-dichlorobutanereplaced 1-chlorobutane in the bulb feeder.
The procedure described in Example 6 was followed except 1,2,3-trichloropropane replaced 1-chlorobutane in the bulb feeder.

Sequence of partially purified TDTM-003 dehalogenase (P59336 whole entry): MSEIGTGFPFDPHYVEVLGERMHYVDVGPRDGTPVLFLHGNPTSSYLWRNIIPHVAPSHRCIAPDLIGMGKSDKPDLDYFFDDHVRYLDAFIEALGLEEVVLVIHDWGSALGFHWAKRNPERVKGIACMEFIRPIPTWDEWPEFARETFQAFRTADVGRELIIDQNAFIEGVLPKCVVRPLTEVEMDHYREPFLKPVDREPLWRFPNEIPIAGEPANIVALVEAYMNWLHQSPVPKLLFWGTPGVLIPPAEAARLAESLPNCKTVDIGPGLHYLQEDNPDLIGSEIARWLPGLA

| Compound | Relative Rate of Halogen Release, 1-Chlorobutane = 100 [1] | Utilization of carbon source for growth, TDTM-003-60-2-11 (TDTM-003-60-2-11 [3]) | Utilization of carbon source for growth, TDTM-003 (TDTM-003) | also measured |
| --- | --- | --- | --- | --- |
| CCCCCl [1-chlorobutane] | 100.000 |  |  | Relative Rate of Chloride Release, 1-chlorobutane = 100 [2]: 100 |
| CCCCCCCCCCCl [1-chlorodecane] | 28.000 |  |  |  |
| CCCCCCCCl [1-chloroheptane] | 130.000 |  |  |  |
| CCCCCCCl [1-chlorohexane] | 119.000 |  |  | Relative Rate of Chloride Release, 1-chlorobutane = 100 [2]: 136 |
| CCCCCCCCCl [1-chlorooctane] | 58.000 |  |  | Relative Rate of Chloride Release, 1-chlorobutane = 100 [2]: 159 |
| CCCCCCl [1-chloropentane] | 81.000 |  |  | Relative Rate of Chloride Release, 1-chlorobutane = 100 [2]: 109 |
| CCCCl [1-chloropropane] | 33.000 |  |  | Relative Rate of Chloride Release, 1-chlorobutane = 100 [2]: 57 |
| CC(C)(Cl)Cl [2,2-dichloropropane] | 23.000 |  |  |  |
| CC(Br)C(C)Br (centres unmarked) [2,3-dibromobutane] | 846.000 |  |  |  |
| OCC(Cl)CCl (centres unmarked) [2,3-dichloro-1-propane] |  | - | + /- |  |
| OCC(Cl)CCl (centres unmarked) [2,3-dichloro-1-propanol] |  |  |  | halohydrin accumulated in culture broth (TDTM-003-60-2-11 [4]; substrate 1,2,3-trichloropropane): 211 ppm (w/v) |
| CC(Cl)C(C)Cl (centres unmarked) [2,3-dichlorobutane] | 19.000 |  |  | Relative Rate of Chloride Release, 1-chlorobutane = 100 [2]: 73 |
| CC(C)Br [2-Bromopropane] | 55.000 |  |  |  |
| CCC(C)Br (centres unmarked) [2-bromobutane] | 123.000 |  |  |  |
| CCC(Cl)CO (centres unmarked) [2-chloro-1-butanol] |  |  |  | halohydrin accumulated in culture broth (TDTM-003-60-2-11 [4]; substrate 1,2-dichlorobutane): 265 ppm (w/v) |
| CC(Cl)CO (centres unmarked) [2-chloro-1-propanol] |  |  |  | halohydrin accumulated in culture broth (TDTM-003-60-2-11 [4]; substrate 1,2-dichloropropane): 20 ppm (w/v) |
| CC(C)(C)Cl [2-chloro-2-methylpropane] |  |  |  | Relative Rate of Chloride Release, 1-chlorobutane = 100 [2]: 2917 |
| CCC(C)Cl (centres unmarked) [2-chlorobutane] | 20.000 |  |  | Relative Rate of Chloride Release, 1-chlorobutane = 100 [2]: 65 |
| CCC(N)C(=O)O (centres unmarked) [Aminobutyrate] |  | + | + |  |
| O=C(O)[C@H](O)[C@@H](O)[C@H](O)[C@H](O)CO [Gluconate] |  | ++ | ++ |  |
| O=C[C@H](O)[C@@H](O)[C@H](O)[C@H](O)CO [Glucose] |  | + + |  |  |
| ClC1CCCCC1 [chlorocyclohexane] | 7.500 |  |  |  |
| O=C(O)c1cccc(O)c1 [m-OH Benz] |  | - | - |  |
| O=C(O)c1ccc(O)cc1 [p-OH-Benz] |  | - | - |  |
| Dextrin |  | - | - |  |
| Glycogen |  | + | + |  |
| Inulin |  | - | - |  |
| Phenylacetate |  | - | + |  |
